Like-named read-outs stand apart in the source and are kept apart here.
Legend:
[1] = Rate of hydrolysis of 5-fluoro-2'-deoxyuridine derivatives by esterase; assay type: in vitro ADME, porcine; details: pig, liver esterase, pH 7.00, 37° C., read-out: t 1/2 (time for 1/2 of the derivative to be converted into parent compound)
Procedure: Rate of hydrolysis of 5-fluoro-2'-deoxyuridine derivatives by esterase […] A 10 μg/ml isotonic solution of the experimental compound in a phosphate buffer (pH 7.00) was prepared and the […] (manufactured by Sigma) extracted from the porcine liver was added to the solution at 37° C. in such a way as to provide the enzyme concentration ranging from 0.03 units/ml to 150 units/ml. Then the sample (10 μl) was injected into an HPLC column periodically to determine the amount of 5-fluoro-2'-deoxyuridine release by the enzyme reaction.

[2] = system: mouse leukemia cells L1210; experiment: Antitumor activity against mouse leukemia L1210, intraperitoneal administration; details: for Max. ILS (%) / ILS30 (dose required to increase lifespan 30%): i.p. once a day for 5 consecutive days
Source text: Antitumor activity of 5-fluoro-2'-deoxyuridine derivatives (in intraperitoneal administration)
Experiments were made with the 5-fluoro-2'-deoxyuridine derivatives of this invention in order to know its antitumor effect against mouse leukemia cells L1210 in comparison with its parent compound 5-fluoro-2'-deoxyuridine and other known antitumor agents.
BDF1 mice (male, 6-week-old, Ca 24 g, in groups of 5 mice), which were abdominally implanted with 10^5 cells of mouse leukemia L1210, which had been collected after 7-day cultivation in other mice, were used in the experiments.
The respective agents were given to the experimental mice intraperitoneally once a day for 5 consecutive days starting 24 hours after the implantation of tumor cells.
The antitumor effect of the respective agents were indicated by the rate of increase in the length of the survival period obtained from the groups given the agents in contrast with the length of the survival period of the control group (not given the agents).
The dose, which is required to increase the lifespan of the experimental mice 30% as compared with the control group, is indicated by ILS30 and the dose, which is required to effect the maximum increase of lifespan (Max. ILS(%)), is indicated by ILS max. ILS max./ILS30 is to represent the therapeutic index which indicates the safety of the agents.

[3] = Change in body weight of L1210-bearing mice, oral administration; assay type: in vivo, BDF1 mice; details: days 1-4
Procedure: (§1) The respective agents were administered orally three times, i.e. on the first day, third day, and fifth day, starting 24 hours after the implantation of tumor cells.

[4] = Release of FUdR from the compound due to the enzyme system in the plasma; assay type: in vitro ADME; details: 4×10^-5 M compound (FUdR 9.85 μg/ml), 20% rat plasma, pH 7.0, 37° C.
Procedure: Behavior to release FUdR from the compound due to the enzyme system in the plasma
The release rates of 5-fluoro-2'-deoxyuridine (FUdR) from the compound of this invention at 37° C. in the rat plasma (20%), diluted with 0.1M phosphate buffer, pH 7.0, were measured.
The compound of this invention was added to the plasma diluted with an isotonic solution of phosphate buffer to a concentration of 4×10^-5 M (corresponding to FUdR 9.85 μg/ml) and was incubated at 37° C. The sample (10 μl) was injected into an HPLC column periodically to determine the amount (μg/ml) of 5-fluoro-2'-deoxyuridine released by the enzymatic reaction.

[5] = system: mouse leukemia L1210; experiment: Antitumor activity against mouse leukemia L1210, oral administration; assay type: in vivo, BDF1 mice; details: for Antitumor effect in oral administration compared with 5-fluoro-2'-deoxyuridine and 3',5'-dioctanoyl-5-fluoro-2'-deoxyuridine: L1210-bearing mice, result in words
Procedure: as §1

[6] = pH 7, enzyme concentration 6.0 units/ml
[7] = days 1, 3, 5, dose 10 mg/kg/day
[8] = days 1, 3, 5, dose 30 mg/kg/day
[9] = days 1, 3, 5, dose 100 mg/kg/day
[10] = days 1, 3, 5, dose 300 mg/kg/day
[11] = pH 7, enzyme concentration 150.0 units/ml
[12] = pH 7, enzyme concentration 0.045 units/ml

Row | Release rate of 5-fluoro-2'-deoxyuridine ([4]; after 100 min) [µg/mL] | SMILES | Max. ILS (%) ([2]; L1210-bearing BDF1 mice) | Therapeutic index (ILS max./ILS30) ([2]; mouse, in vivo, ip) | ILS30 (dose required to increase lifespan 30%) ([2]; L1210-bearing BDF1 mice) [µmol·days/kg] | Change in body weight (1-4 d, g/mouse) ([3]; dose 10 mg/kg/day) | Change in body weight (1-4 d, g/mouse) ([3]; dose 30 mg/kg/day) | Change in body weight (1-4 d, g/mouse) ([3]; dose 100 mg/kg/day) [g/mouse] | Change in body weight (1-4 d, g/mouse) ([3]; dose 300 mg/kg/day) [g/mouse] | ILS (%) [5, 7] [%] | ILS (%) [5, 8] [%] | ILS (%) [5, 9] [%] | ILS (%) [5, 10] [%] | other results
1 |  | O=C(O)CCCCC(=O)OC[C@H]1O[C@@H](n2cc(F)c(=O)[nH]c2=O)C[C@@H]1OC(=O)CCCCC(=O)O [3',5'-diadipoyl-5-fluoro-2'-deoxyuridine] | 58 | 20.0 |  |  |  |  |  |  |  |  |  | half-life [1, 6]: 439 min; half-life ([1]; pH 7, enzyme concentration 12.0 units/ml): 216 min
2 |  | CCCC(=O)OC[C@H]1O[C@@H](n2cc(F)c(=O)[nH]c2=O)C[C@@H]1OC(=O)CCC [3',5'-dibutyryl-5-fluoro-2'-deoxyuridine] |  |  |  |  |  |  |  |  |  |  |  | half-life ([1]; pH 7, enzyme concentration 0.75 units/ml): 42.4 min; half-life ([1]; pH 7, enzyme concentration 1.50 units/ml): 21.7 min
3 | 4.7 | CCCCCCCCCC(=O)OC[C@H]1O[C@@H](n2cc(F)c(=O)[nH]c2=O)C[C@@H]1OC(=O)CCCCCCCCC [3',5'-didecanoyl-5-fluoro-2'-deoxyuridine] | 52 | 10.0 | 18 | -0.8 g/mouse | -1.4 g/mouse | -2.4 | -3.8 | 7 | 26 | 15 | 20 | half-life ([1]; pH 7, enzyme concentration 0.3 units/ml): 140 min; half-life ([1]; pH 7, enzyme concentration 0.6 units/ml): 72 min; Release rate of 5-fluoro-2'-deoxyuridine ([4]; after 200 min): 6.7 µg/mL; Release rate of 5-fluoro-2'-deoxyuridine ([4]; after 300 min): 7.8 µg/mL; Release rate of 5-fluoro-2'-deoxyuridine ([4]; after 400 min): 8.5 µg/mL; Release rate of 5-fluoro-2'-deoxyuridine ([4]; after 500 min): 9.3 µg/mL; Antitumor effect in oral administration compared with 5-fluoro-2'-deoxyuridine and 3',5'-dioctanoyl-5-fluoro-2'-deoxyuridine [5]: much higher antitumor effect
4 | 1.2 | CCCCCCCCCCCC(=O)OC[C@H]1O[C@@H](n2cc(F)c(=O)[nH]c2=O)C[C@@H]1OC(=O)CCCCCCCCCCC [3',5'-didodecanoyl-5-fluoro-2'-deoxyuridine] | 62 | 45.0 | 1.0 | +1.0 g/mouse | +1.0 g/mouse | 0 | -2.6 | 0 | 5 | 15 | 40 | half-life [1, 11]: 4000 min; Release rate of 5-fluoro-2'-deoxyuridine ([4]; after 200 min): 2.2 µg/mL; Release rate of 5-fluoro-2'-deoxyuridine ([4]; after 300 min): 2.9 µg/mL; Release rate of 5-fluoro-2'-deoxyuridine ([4]; after 400 min): 3.8 µg/mL; Release rate of 5-fluoro-2'-deoxyuridine ([4]; after 500 min): 4.2 µg/mL; Antitumor effect in oral administration compared with 5-fluoro-2'-deoxyuridine and 3',5'-dioctanoyl-5-fluoro-2'-deoxyuridine [5]: much higher antitumor effect
5 |  | O=C(O)CCCC(=O)OC[C@H]1O[C@@H](n2cc(F)c(=O)[nH]c2=O)C[C@@H]1OC(=O)CCCC(=O)O [3',5'-diglutaryl-5-fluoro-2'-deoxyuridine] |  |  |  |  |  |  |  |  |  |  |  | half-life [1, 11]: 437 min
6 | 7.8 | CCCCCC(=O)OC[C@H]1O[C@@H](n2cc(F)c(=O)[nH]c2=O)C[C@@H]1OC(=O)CCCCC [3',5'-dihexanoyl-5-fluoro-2'-deoxyuridine, reference compound] | 38 | 4.3 | 10 |  |  |  |  |  |  |  |  | half-life [1, 12]: 32.5 min; half-life ([1]; pH 7, enzyme concentration 0.075 units/ml): 24 min; half-life ([1]; pH 7, enzyme concentration 0.15 units/ml): 10 min; Release rate of 5-fluoro-2'-deoxyuridine ([4]; after 200 min): 9.85 µg/mL
7 | 9.85 | CCCCCCCC(=O)OC[C@H]1O[C@@H](n2cc(F)c(=O)[nH]c2=O)C[C@@H]1OC(=O)CCCCCCC [3',5'-dioctanoyl-5-fluoro-2'-deoxyuridine, reference compound] |  |  |  | +1.8 g/mouse | +1.6 g/mouse | -2.8 | -2.2 | -5 | 3 | -5 | 5 | half-life ([1]; pH 7, enzyme concentration 0.03 units/ml): 18.2 min; half-life [1, 12]: 15.6 min
8 |  | CCCCCCCCCCCCCCCC(=O)OC[C@H]1O[C@@H](n2cc(F)c(=O)[nH]c2=O)C[C@@H]1OC(=O)CCCCCCCCCCCCCCC [3',5'-dipalmitoyl-5-fluoro-2'-deoxyuridine, reference compound] | 55 | 5.0 | 0.8 |  |  |  |  |  |  |  |  | 
9 |  | CCC(=O)OC[C@H]1O[C@@H](n2cc(F)c(=O)[nH]c2=O)C[C@@H]1OC(=O)CC [3',5'-dipropanoyl-5-fluoro-2'-deoxyuridine] |  |  |  |  |  |  |  |  |  |  |  | half-life ([1]; pH 7, enzyme concentration 3.0 units/ml): 47.4 min; half-life [1, 6]: 24.2 min
10 |  | O=C(O)CCC(=O)OC[C@H]1O[C@@H](n2cc(F)c(=O)[nH]c2=O)C[C@@H]1OC(=O)CCC(=O)O [3',5'-disuccinyl-5-fluoro-2'-deoxyuridine] |  |  |  |  |  |  |  |  |  |  |  | half-life [1, 11]: 3220 min
11 |  | CCCCCCCCCCCCCC(=O)OC[C@H]1O[C@@H](n2cc(F)c(=O)[nH]c2=O)C[C@@H]1OC(=O)CCCCCCCCCCCCC [3',5'-ditetradecanoyl-5-fluoro-2'-deoxyuridine] | 61 |  |  | -0.8 g/mouse | -1.4 g/mouse | -2.4 |  | 27 | 33 | 17 |  | Change in body weight (1-4 d, g/mouse) ([3]; dose 1 mg/kg/day): +2.2 g/mouse; Change in body weight (1-4 d, g/mouse) ([3]; dose 3 mg/kg/day): +2.0 g/mouse; Antitumor effect in oral administration compared with 5-fluoro-2'-deoxyuridine and 3',5'-dioctanoyl-5-fluoro-2'-deoxyuridine [5]: much higher antitumor effect; ILS (%) ([5]; days 1, 3, 5, dose 1 mg/kg/day): 3%; ILS (%) ([5]; days 1, 3, 5, dose 3 mg/kg/day): 3%
12 |  | O=c1[nH]c(=O)n([C@H]2C[C@H](O)[C@@H](CO)O2)cc1F [5-fluoro-2'-deoxyuridine] | 54 |  | 200 | +0.6 g/mouse | +1.8 g/mouse | -4.2 | -5.2 | 15 | 10 | 15 | 10 | Therapeutic index (ILS max./ILS30) ([2]; i.p., L1210-bearing BDF1 mice): 2.0
